Reference: ChEMBL document CHEMBL1201862, “PubChem BioAssay data set” (2004)
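Dose response: 5 concentrations. Exposure: 48 h. Format: 96-well plates. Endpoint: linear interpolation; highest concentration if not reached. GI50 = concentration required for 50% inhibition of growth.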 Active and inactive are the calls of the source. No stated cut-off is given here; in the data, active = GI50 up to about 1.1 µM and inactive = higher.

Experiments:
Test in all cases: NCI-60 cell line screen, 48 h
NCI-H23 = system: NCI-H23
NCI-H226 = system: NCI-H226
SK-MEL-28 = system: SK-MEL-28
SK-OV-3 = system: SK-OV-3
OVCAR-3 = system: OVCAR-3
EKVX = system: EKVX
UACC-257 = system: UACC-257
SF-295 = system: SF-295
CAKI-1 = system: CAKI-1
SN12C = system: SN12C
UACC-62 = system: UACC-62
TK-10 = system: TK-10
HOP-62 = system: HOP-62
HCT-15 = system: HCT-15
RXF 393 = system: RXF 393

Compound	GI50 (NCI-H23)	GI50 (NCI-H226)	GI50 (SK-MEL-28)	GI50 (SK-OV-3)	GI50 (OVCAR-3)	GI50 (EKVX)	GI50 (UACC-257)	GI50 (SF-295)	GI50 (CAKI-1)	GI50 (SN12C)	GI50 (UACC-62)	GI50 (TK-10)	GI50 (HOP-62)	GI50 (HCT-15) [µM]	GI50 (RXF 393)
N#CC(c1ccc(Cl)cc1)c1cccc(Cl)n1 (centres undefined)	43.3 µM (inactive)	43.6 µM (inactive)	86.9 µM (inactive)	42.1 µM (inactive)	34 µM (inactive)	39 µM (inactive)	60.7 µM (inactive)	61.9 µM (inactive)	25.3 µM (inactive)	54.3 µM (inactive)	42.6 µM (inactive)	33.2 µM (inactive)	91 µM (inactive)	–	–
CC1=CC(=O)NP(=O)(Oc2ccc(C)cc2)N1 (centres undefined)	> 100 µM (inactive)	> 100 µM (inactive)	> 100 µM (inactive)	> 100 µM (inactive)	> 100 µM (inactive)	> 100 µM (inactive)	> 100 µM (inactive)	> 100 µM (inactive)	> 100 µM (inactive)	> 100 µM (inactive)	> 100 µM (inactive)	> 100 µM (inactive)	> 100 µM (inactive)	> 100	–
CCCOCN1COCN/C1=N\C#N	> 100 µM (inactive)	> 100 µM (inactive)	> 100 µM (inactive)	> 100 µM (inactive)	> 100 µM (inactive)	> 100 µM (inactive)	> 100 µM (inactive)	> 100 µM (inactive)	> 100 µM (inactive)	> 100 µM (inactive)	> 100 µM (inactive)	> 100 µM (inactive)	> 100 µM (inactive)	17.1	15.3 µM (inactive)
COc1ccccc1/N=N/c1c(-c2ccccc2)nn(C(=O)CC(=O)Nc2cccc(C)c2)c1-c1ccccc1	24.1 µM (inactive)	36.3 µM (inactive)	> 100 µM (inactive)	–	16 µM (inactive)	41.2 µM (inactive)	27.3 µM (inactive)	28.2 µM (inactive)	23.3 µM (inactive)	20.8 µM (inactive)	38.8 µM (inactive)	72.1 µM (inactive)	19.1 µM (inactive)	21.1	53.3 µM (inactive)
NC(=S)N/N=C/c1cn(CCCl)c2ccccc12	> 100 µM (inactive)	–	63.5 µM (inactive)	> 100 µM (inactive)	36.8 µM (inactive)	14.7 µM (inactive)	22 µM (inactive)	13.6 µM (inactive)	18.7 µM (inactive)	89.7 µM (inactive)	30.2 µM (inactive)	90.2 µM (inactive)	89.5 µM (inactive)	8.69	> 100 µM (inactive)
O=C1C2=C(CCCCC2)C2CCCCC12O (centres undefined)	> 100 µM (inactive)	> 100 µM (inactive)	> 100 µM (inactive)	> 100 µM (inactive)	> 100 µM (inactive)	> 100 µM (inactive)	> 100 µM (inactive)	> 100 µM (inactive)	–	> 100 µM (inactive)	> 100 µM (inactive)	> 100 µM (inactive)	> 100 µM (inactive)	–	> 100 µM (inactive)
CCOC(=O)[C-]([N+]#N)[Si](C)(C)C	75.5 µM (inactive)	–	18.5 µM (inactive)	–	> 100 µM (inactive)	–	59.3 µM (inactive)	> 100 µM (inactive)	> 100 µM (inactive)	> 100 µM (inactive)	72.4 µM (inactive)	> 100 µM (inactive)	20.5 µM (inactive)	27.5	> 100 µM (inactive)
NC(=O)C(=O)N/N=C1\C(=O)N(c2ccc(Cl)cc2Cl)C(=O)C1C(=O)Nc1ccc(Cl)cc1Cl (centres undefined)	> 100 µM (inactive)	> 100 µM (inactive)	> 100 µM (inactive)	> 100 µM (inactive)	> 100 µM (inactive)	> 100 µM (inactive)	> 100 µM (inactive)	> 100 µM (inactive)	> 100 µM (inactive)	> 100 µM (inactive)	> 100 µM (inactive)	> 100 µM (inactive)	> 100 µM (inactive)	> 100	> 100 µM (inactive)
c1ccc(COCC2OC3c4ccccc4COC3C2OCc2ccccc2)cc1 (centres undefined)	94.8 µM (inactive)	> 100 µM (inactive)	> 100 µM (inactive)	> 100 µM (inactive)	> 100 µM (inactive)	> 100 µM (inactive)	61.2 µM (inactive)	77.3 µM (inactive)	76.9 µM (inactive)	> 100 µM (inactive)	52.7 µM (inactive)	> 100 µM (inactive)	–	69.5	32 µM (inactive)
Cc1cc(=O)n(-c2ccccc2)c(=O)o1	> 100 µM (inactive)	> 100 µM (inactive)	> 100 µM (inactive)	> 100 µM (inactive)	> 100 µM (inactive)	> 100 µM (inactive)	> 100 µM (inactive)	49.5 µM (inactive)	> 100 µM (inactive)	> 100 µM (inactive)	> 100 µM (inactive)	> 100 µM (inactive)	> 100 µM (inactive)	> 100	> 100 µM (inactive)
CC1OC(n2cc(C(F)(F)F)c(=O)[nH]c2=O)C=CC1=O (centres undefined)	18.2 µM (inactive)	28.4 µM (inactive)	21 µM (inactive)	19.6 µM (inactive)	17.7 µM (inactive)	–	19.1 µM (inactive)	27.6 µM (inactive)	–	23.3 µM (inactive)	21 µM (inactive)	20.9 µM (inactive)	27.7 µM (inactive)	20.7	–
COC(=O)C1=C(C(=O)OC)C2C(C)=CC(C)=CN2C(C#N)=C(SC)S1 (centres undefined)	17.7 µM (inactive)	17 µM (inactive)	19.3 µM (inactive)	46.3 µM (inactive)	28.4 µM (inactive)	25.9 µM (inactive)	24.3 µM (inactive)	31 µM (inactive)	20.3 µM (inactive)	21.4 µM (inactive)	> 10 µM (inactive)	35.2 µM (inactive)	51.8 µM (inactive)	19.7	16.1 µM (inactive)
O=C(COc1ccc(Cl)cc1)N1CCN(C(=O)COc2ccc(Cl)cc2)c2ccccc21	> 100 µM (inactive)	–	21.2 µM (inactive)	81.5 µM (inactive)	54.6 µM (inactive)	26.3 µM (inactive)	25.2 µM (inactive)	54.5 µM (inactive)	–	–	–	33.4 µM (inactive)	> 100 µM (inactive)	–	47.6 µM (inactive)
CC(=O)Nc1c(Nc2ccccc2)[nH]c(C)nc1=S	> 100 µM (inactive)	–	> 100 µM (inactive)	> 100 µM (inactive)	> 100 µM (inactive)	> 100 µM (inactive)	> 100 µM (inactive)	> 100 µM (inactive)	> 100 µM (inactive)	> 100 µM (inactive)	> 100 µM (inactive)	> 100 µM (inactive)	> 100 µM (inactive)	> 100	> 100 µM (inactive)
C[N+](C)(C)CC(=O)N/N=C(\CCC(=O)NCCc1ccccc1)CC(=O)c1ccccc1	> 100 µM (inactive)	> 100 µM (inactive)	–	> 100 µM (inactive)	> 100 µM (inactive)	> 100 µM (inactive)	> 100 µM (inactive)	> 100 µM (inactive)	> 100 µM (inactive)	> 100 µM (inactive)	> 100 µM (inactive)	> 100 µM (inactive)	> 100 µM (inactive)	> 100	–
CC[C@H]1[C@@H](C)C=C[C@@H](C)N1S(=O)(=O)c1ccc(C)cc1	> 100 µM (inactive)	> 100 µM (inactive)	> 100 µM (inactive)	> 100 µM (inactive)	> 100 µM (inactive)	> 100 µM (inactive)	> 100 µM (inactive)	95.9 µM (inactive)	> 100 µM (inactive)	92.7 µM (inactive)	97.7 µM (inactive)	–	> 100 µM (inactive)	61.2	48.6 µM (inactive)
CCOC12OC3=C(CC1CC1=C(CCC1=O)O2)C(=O)CC3 (centres undefined)	> 100 µM (inactive)	> 100 µM (inactive)	–	> 100 µM (inactive)	> 100 µM (inactive)	> 100 µM (inactive)	> 100 µM (inactive)	> 100 µM (inactive)	> 100 µM (inactive)	> 100 µM (inactive)	> 100 µM (inactive)	> 100 µM (inactive)	> 100 µM (inactive)	> 100	> 100 µM (inactive)
O=C1C2C3C=C4c5ccccc5N(c5ccccc5)C4(C2C(=O)N1c1ccc(Cl)cc1)[C@H]1C(=O)N(c2ccc(Cl)cc2)C(=O)[C@@H]31 (some centres undefined)	> 100 µM (inactive)	> 100 µM (inactive)	–	> 100 µM (inactive)	> 100 µM (inactive)	> 100 µM (inactive)	> 100 µM (inactive)	> 100 µM (inactive)	14.7 µM (inactive)	> 100 µM (inactive)	> 100 µM (inactive)	> 100 µM (inactive)	> 100 µM (inactive)	> 100	> 100 µM (inactive)
Cc1ccc(-c2cc(O)c3cc4c(cc3n2)OCO4)cc1	0.916 µM (active)	1.63 µM (inactive)	2.67 µM (inactive)	1.45 µM (inactive)	0.929 µM (active)	4.05 µM (inactive)	> 100 µM (inactive)	2.02 µM (inactive)	3.52 µM (inactive)	2.56 µM (inactive)	0.729 µM (active)	7.66 µM (inactive)	2.25 µM (inactive)	0.501	1.44 µM (inactive)
COc1cc(CCc2cccnc2)cc(OC)c1OC	> 100 µM (inactive)	> 100 µM (inactive)	> 100 µM (inactive)	–	> 100 µM (inactive)	> 100 µM (inactive)	> 100 µM (inactive)	> 100 µM (inactive)	> 100 µM (inactive)	> 100 µM (inactive)	> 100 µM (inactive)	> 100 µM (inactive)	> 100 µM (inactive)	> 100	> 100 µM (inactive)
